In one test the target is T1, human MAO-A (Homo sapiens, UniProt P21397).
T1 sequence (P21397 1-527): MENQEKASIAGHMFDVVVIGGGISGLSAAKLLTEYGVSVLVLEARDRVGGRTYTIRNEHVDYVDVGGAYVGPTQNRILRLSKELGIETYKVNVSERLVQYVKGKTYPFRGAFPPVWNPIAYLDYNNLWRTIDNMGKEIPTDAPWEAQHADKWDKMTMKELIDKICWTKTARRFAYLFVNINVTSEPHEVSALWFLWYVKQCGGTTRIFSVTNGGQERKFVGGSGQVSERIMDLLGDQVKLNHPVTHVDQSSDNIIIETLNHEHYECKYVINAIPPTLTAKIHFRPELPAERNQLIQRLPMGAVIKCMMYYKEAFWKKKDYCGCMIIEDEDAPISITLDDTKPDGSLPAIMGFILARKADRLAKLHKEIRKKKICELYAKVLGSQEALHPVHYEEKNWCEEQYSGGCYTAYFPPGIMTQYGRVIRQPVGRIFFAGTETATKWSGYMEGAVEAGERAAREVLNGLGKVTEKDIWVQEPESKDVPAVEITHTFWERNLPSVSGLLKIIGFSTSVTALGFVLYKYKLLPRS
Kind of test: MAO inhibitory assay (kynuramine, fluorescence), MAO-A. Type of test: biochemical. The note with it: human recombinant enzyme, kynuramine substrate, 37° C., triplicate. Here is the method:
(§1) MAO inhibitory activity was assayed using the method of Novaroli et al. with minor modifications. Briefly, 140 μL of 0.1 M potassium phosphate buffer (pH 7.4), 8 μL of 0.75 mM kynuramine, and 2 μL of a dimethyl sulfoxide (DMSO) inhibitor solution (final DMSO concentration of 1% (v/v) and final concentrations of the inhibitors of 0-1 μM), were preincubated at 37° C. for 10 min. Diluted human recombinant enzyme (50 μL) was then added to obtain a final protein concentration of 0.0075 mg/mL (MAO-A) or 0.015 mg/mL (MAO-B) in the assay mixture. The reaction mixture was further incubated at 37° C. and the reaction was stopped after 20 min by the addition of 75 μL of 2 M NaOH. The product generated by MAO, 4-quinolinol, is fluorescent and was measured at Ex 310 nm/Em 400 nm using a microplate reader (Thermo Scientific-Multiskan GO). Each data points of samples were triplicate. The sample solution was replaced with DMSO to provide a negative control. The IC50 values were calculated from a line through two points which sandwiched the point of 50% (IC50) by plotting the remained activity (%) related to control (100%) versus the logarithm of the inhibitor concentration to obtain a sigmoidal dose-response curve

A further test has as its target T2, human MAO-B (Homo sapiens, UniProt P27338).
T2 sequence (P27338 1-520): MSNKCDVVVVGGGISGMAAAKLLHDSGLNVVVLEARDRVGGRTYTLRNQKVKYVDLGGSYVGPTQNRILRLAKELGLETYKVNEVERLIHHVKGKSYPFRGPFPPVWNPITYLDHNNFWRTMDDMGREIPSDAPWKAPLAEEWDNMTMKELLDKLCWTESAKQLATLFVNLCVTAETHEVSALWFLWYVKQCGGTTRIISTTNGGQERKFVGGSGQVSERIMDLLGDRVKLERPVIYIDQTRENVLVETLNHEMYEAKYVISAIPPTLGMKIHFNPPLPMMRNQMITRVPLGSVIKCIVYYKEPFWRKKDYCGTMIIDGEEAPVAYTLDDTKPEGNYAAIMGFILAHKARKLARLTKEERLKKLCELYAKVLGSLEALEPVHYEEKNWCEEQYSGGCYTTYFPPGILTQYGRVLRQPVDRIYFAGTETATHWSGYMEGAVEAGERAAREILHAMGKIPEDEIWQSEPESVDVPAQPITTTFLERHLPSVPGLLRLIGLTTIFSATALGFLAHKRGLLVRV
Kind of test: MAO inhibitory assay (kynuramine, fluorescence), MAO-B. Type of test: biochemical. Here is the method: as §1

On to `Cn1nc(C(=O)NCCc2nc3ccccc3[nH]2)c2ccccc21` (racemic) [compound of formula I], for which the IC50 at human MAO-A came out at 54.8 ± 1.9 nM; on human MAO-B (human recombinant enzyme, kynuramine substrate, 37° C., triplicate) it was 4.02 ± 0.03 nM. Moreover, the “fold more potent binding to MOA-B compared to MOA-A” value on human MAO-B (MAO-B over MAO-A, from IC50 values) was “approximately 13 fold”.

What is called IC50 is the concentration that gives 50% inhibition.

Source of the values: patent publication US12528794B2, “MAO-B inhibitor DRG-MAOB-1 for use in treatment of neurodegenerative diseases” (BAHCESEHIR UNIVERSITESI, priority 2020, dated 2026).
